Laboratory results taken from patent EP4806891A1 (Kangbaida (Sichuan) Biotechnology Co., Ltd., priority 2023, dated 2025).

Each compound was assayed against T1, HEK-Blue-hTLR8 cells (Homo sapiens, UniProt Q9NR97) (assay: HEK-Blue-hTLR8 cell inhibition assay). Settings: R848 3 µM, 16 h, OD 620 nm, read-out: TLR8 IC50.
T1 construct: expressed in transfected cells; host or cells: HEK-Blue-hTLR8 cells (HEK293-derived reporter line)
T1 sequence (Q9NR97 27-1041): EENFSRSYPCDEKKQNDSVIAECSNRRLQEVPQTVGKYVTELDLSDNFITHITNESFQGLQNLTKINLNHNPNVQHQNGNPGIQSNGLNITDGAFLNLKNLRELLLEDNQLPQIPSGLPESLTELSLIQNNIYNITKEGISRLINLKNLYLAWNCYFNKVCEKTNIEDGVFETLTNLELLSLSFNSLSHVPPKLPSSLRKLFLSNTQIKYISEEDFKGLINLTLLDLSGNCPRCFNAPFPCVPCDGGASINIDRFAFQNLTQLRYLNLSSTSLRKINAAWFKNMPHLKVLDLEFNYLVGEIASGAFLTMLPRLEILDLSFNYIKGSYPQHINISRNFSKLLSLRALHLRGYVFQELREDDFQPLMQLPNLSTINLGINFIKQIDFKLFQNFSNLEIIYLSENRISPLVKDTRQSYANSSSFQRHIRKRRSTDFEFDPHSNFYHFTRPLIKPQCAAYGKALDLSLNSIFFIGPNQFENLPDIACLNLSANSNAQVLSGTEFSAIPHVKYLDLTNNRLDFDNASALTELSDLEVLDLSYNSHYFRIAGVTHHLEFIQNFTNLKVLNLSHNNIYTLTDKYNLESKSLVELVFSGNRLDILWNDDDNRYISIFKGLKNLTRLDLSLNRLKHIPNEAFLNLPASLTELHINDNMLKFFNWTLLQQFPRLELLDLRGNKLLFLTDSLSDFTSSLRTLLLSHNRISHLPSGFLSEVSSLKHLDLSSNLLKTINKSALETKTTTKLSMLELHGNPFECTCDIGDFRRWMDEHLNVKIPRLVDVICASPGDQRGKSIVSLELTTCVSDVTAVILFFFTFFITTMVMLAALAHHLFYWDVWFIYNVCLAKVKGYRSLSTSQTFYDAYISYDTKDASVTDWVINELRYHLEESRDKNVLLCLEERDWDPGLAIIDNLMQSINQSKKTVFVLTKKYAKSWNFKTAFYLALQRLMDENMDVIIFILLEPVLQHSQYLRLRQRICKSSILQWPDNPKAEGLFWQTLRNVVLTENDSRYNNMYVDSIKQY
Format: cell-based
How it was run: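 Cells were pre-incubated 4 h, then co-treated 16 h at 37 °C with compound (10 doses, 0.5–10000 nM final) plus R848 (0.8 µM for TLR7, 3 µM for TLR8) or ODN2006 (1 µM, TLR9). Reporter OD620 gave inhibition relative to DMSO blank and agonist-only controls; IC50 came from curve fitting.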
Compound `FC(F)(F)c1ccc(N2C[C@]3(c4nnc(C5CCN(CC6CC6)CC5)o4)C[C@]3(C(F)(F)F)C2)c2cccnc12` [Compound 76, 2-(1-(cyclopropylmethyl)piperidin-4-yl)-5-((1S,5R)-5-(trifluoromethyl)-3-(8-(trifluoromethyl)quinolin-5-yl)-3-azabicyclo[3.1.0]hexan-1-yl)-1,3,4-oxadiazole] has an IC50 of less than 100 nM.
In the case of `CN1CCC(c2nnc([C@]34CN(c5ccc(C#N)c6ncccc56)C[C@@]3(C(F)(F)F)C4)o2)CC1=O` (some centres unmarked) [Compound 34], the IC50 is reported as less than 1000 nM.
Compound `CN1CC2(CCC(c3nnc([C@]45CN(c6ccc(C#N)c7ncccc67)C[C@@]4(C(F)(F)F)C5)o3)CC2)C1` [Compound 13, 5-((1S,5R)-1-(5-(2-methyl-2-azaspiro[3.5]nonan-7-yl)-1,3,4-oxadiazol-2-yl)-5-(trifluoromethyl)-3-azabicyclo[3.1.0]hexan-3-yl)quinoline-8-carbonitrile] has an IC50 of less than 100 nM.
`CN1CCC(c2nnc([C@]34CN(c5ccc(C#N)n6nccc56)C[C@@]3(C(F)(F)F)C4)o2)CC1` [Compound 59, 4-((1S,5R)-1-(5-(1-methylpiperidin-4-yl)-1,3,4-oxadiazol-2-yl)-5-(trifluoromethyl)-3-azabicyclo[3.1.0]hexan-3-yl)pyrazolo[1,5-a]pyridine-7-carbonitrile] gave an IC50 of less than 1000 nM.
`N#Cc1ccc(N2C[C@]3(c4nnc(C5CCNCC5)o4)C[C@]3(C(F)(F)F)C2)c2c(F)cnn12` [Compound 80, 3-fluoro-4-((1S,5R)-1-(5-(piperidin-4-yl)-1,3,4-oxadiazol-2-yl)-5-(trifluoromethyl)-3-azabicyclo[3.1.0]hexan-3-yl)pyrazolo[1,5-a]pyridine-7-carbonitrile] was tested, and the IC50 was less than 100 nM.
Compound `CN1CCC(c2nnc([C@]34CN(c5ccc(C#N)n6ncc(F)c56)C[C@@]3(C(F)(F)F)C4)o2)CC1` [Compound 57, 3-fluoro-4-((1S,5R)-1-(5-(1-methylpiperidin-4-yl)-1,3,4-oxadiazol-2-yl)-5-(trifluoromethyl)-3-azabicyclo[3.1.0]hexan-3-yl)pyrazolo[1,5-a]pyridine-7-carbonitrile] has an IC50 of less than 100 nM.
`CN(C)Cc1nnc([C@]23CN(c4ccc(C#N)c5ncccc45)C[C@@]2(C(F)(F)F)C3)o1` [Compound 42, 5-((1S,5R)-1-(5-((dimethylamino)methyl)-1,3,4-oxadiazol-2-yl)-5-(trifluoromethyl)-3-azabicyclo[3.1.0]hexan-3-yl)quinoline-8-carbonitrile] was tested, and the IC50 was less than 1000 nM.
With `CN1CCC(Oc2nnc([C@]34CN(c5ccc(OC(F)(F)F)c6ncccc56)C[C@@]3(C(F)(F)F)C4)o2)CC1` [Compound 93, 2-((1-methylpiperidin-4-yl)oxy)-5-((1S,5R)-5-(trifluoromethyl)-3-(8-(trifluoromethoxy)quinolin-5-yl)-3-azabicyclo[3.1.0]hexan-1-yl)-1,3,4-oxadiazole] the IC50 was less than 100 nM.
`CN1CC2(CC(c3nnc([C@]45CN(c6ccc(C#N)c7ncccc67)C[C@@]4(C(F)(F)F)C5)o3)C2)C1` [Compound 19, 5-((1S,5R)-1-(5-(2-methyl-2-azaspiro[3.3]heptan-6-yl)-1,3,4-oxadiazol-2-yl)-5-(trifluoromethyl)-3-azabicyclo[3.1.0]hexan-3-yl)quinoline-8-carbonitrile] showed an IC50 of less than 100 nM.
Compound `CN1[C@@H]2CC[C@H]1C[C@H](c1nnc([C@]34CN(c5ccc(C#N)c6ncccc56)C[C@@]3(C(F)(F)F)C4)o1)C2` [Compound 11, 5-((1S,5R)-1-(5-((1R,3S,5S)-8-methyl-8-azabicyclo[3.2.1]octan-3-yl)-1,3,4-oxadiazol-2-yl)-5-(trifluoromethyl)-3-azabicyclo[3.1.0]hexan-3-yl)quinoline-8-carbonitrile] has an IC50 of less than 100 nM.
`FC(F)(F)c1ccc(N2C[C@]3(c4nnc(C5CCNCC5)o4)C[C@]3(C(F)(F)F)C2)c2cccnc12` [Compound 75, 2-(piperidin-4-yl)-5-((1S,5R)-5-(trifluoromethyl)-3-(8-(trifluoromethyl)quinolin-5-yl)-3-azabicyclo[3.1.0]hexan-1-yl)-1,3,4-oxadiazole] was tested, and the IC50 was less than 100 nM.
Compound `CN1CCC(Nc2nnc([C@]34CN(c5ccc(C#N)c6ncccc56)C[C@@]3(C(F)(F)F)C4)o2)CC1` [Compound 6, 5-((1S,5R)-1-(5-((1-methylpiperidin-4-yl)amino)-1,3,4-oxadiazol-2-yl)-5-(trifluoromethyl)-3-azabicyclo[3.1.0]hexan-3-yl)quinoline-8-carbonitrile] has an IC50 of less than 100 nM.
`CN1CCC(O)(c2nnc([C@]34CN(c5ccc(C(F)(F)F)c6ncccc56)C[C@@]3(C(F)(F)F)C4)o2)CC1` [Compound 94, 1-methyl-4-(5-((1S,5R)-5-(trifluoromethyl)-3-(8-(trifluoromethyl)quinolin-5-yl)-3-azabicyclo[3.1.0]hexan-1-yl)-1,3,4-oxadiazol-2-yl)piperidin-4-ol] gave an IC50 of less than 100 nM.
`CN1CCC(c2nnc([C@]34CN(c5ccc(C#N)n6ncc(Br)c56)C[C@@]3(C(F)(F)F)C4)o2)CC1` [Compound 83, 3-bromo-4-((1S,5R)-1-(5-(1-methylpiperidin-4-yl)-1,3,4-oxadiazol-2-yl)-5-(trifluoromethyl)-3-azabicyclo[3.1.0]hexan-3-yl)pyrazolo[1,5-a]pyridine-7-carbonitrile] showed an IC50 greater than 1000 nM.
Compound `CN1CC(c2nnc([C@]34CN(c5ccc(C(F)(F)F)c6ncccc56)C[C@@]3(C(F)(F)F)C4)o2)C1` [Compound 4, 2-(1-methylazetidin-3-yl)-5-((1S,5R)-5-(trifluoromethyl)-3-(8-(trifluoromethyl)quinolin-5-yl)-3-azabicyclo[3.1.0]hexan-1-yl)-1,3,4-oxadiazole] has an IC50 of less than 100 nM.
Compound `N#Cc1ccc(N2C[C@]3(c4nnc(C#CCN5CCOCC5)o4)C[C@]3(C(F)(F)F)C2)c2cccnc12` [Compound 24, 5-((1S,5R)-1-(5-(3-morpholinoprop-1-yn-1-yl)-1,3,4-oxadiazol-2-yl)-5-(trifluoromethyl)-3-azabicyclo[3.1.0]hexan-3-yl)quinoline-8-carbonitrile] has an IC50 of less than 100 nM.
Compound `N#Cc1ccc(N2C[C@]3(c4nnc(C5(F)CCNCC5)o4)C[C@]3(C(F)(F)F)C2)c2cccnc12` [Compound 60, 5-((1S,5R)-1-(5-(4-fluoropiperidin-4-yl)-1,3,4-oxadiazol-2-yl)-5-(trifluoromethyl)-3-azabicyclo[3.1.0]hexan-3-yl)quinoline-8-carbonitrile] has an IC50 of less than 100 nM.
`CN(C)C12CCC(c3nnc([C@]45CN(c6ccc(C#N)c7ncccc67)C[C@@]4(C(F)(F)F)C5)o3)(CC1)CC2` [Compound 53, 5-((1S,5R)-1-(5-(4-(dimethylamino)bicyclo[2.2.2]octan-1-yl)-1,3,4-oxadiazol-2-yl)-5-(trifluoromethyl)-3-azabicyclo[3.1.0]hexan-3-yl)quinoline-8-carbonitrile] was tested, and the IC50 was less than 100 nM.
Work on `N#Cc1ccc(N2C[C@]3(c4nnc(C5CCOCC5)o4)C[C@]3(C(F)(F)F)C2)c2cccnc12` [Compound 12, 5-((1S,5R)-1-(5-(tetrahydro-2H-pyran-4-yl)-1,3,4-oxadiazol-2-yl)-5-(trifluoromethyl)-3-azabicyclo[3.1.0]hexan-3-yl)quinoline-8-carbonitrile] yielded an IC50 of less than 100 nM.
`NC12CCC(c3nnc([C@]45CN(c6ccc(C(F)(F)F)c7ncccc67)C[C@@]4(C(F)(F)F)C5)o3)(CC1)CC2` [Compound 81, 4-(5-((1S,5R)-5-(trifluoromethyl)-3-(8-(trifluoromethyl)quinolin-5-yl)-3-azabicyclo[3.1.0]hexan-1-yl)-1,3,4-oxadiazol-2-yl)bicyclo[2.2.2]octan-1-amine] showed an IC50 of less than 100 nM.
`CN(C)CCc1nnc([C@]23CN(c4ccc(C#N)c5ncccc45)C[C@@]2(C(F)(F)F)C3)o1` [Compound 51, 5-((1S,5R)-1-(5-(2-(dimethylamino)ethyl)-1,3,4-oxadiazol-2-yl)-5-(trifluoromethyl)-3-azabicyclo[3.1.0]hexan-3-yl)quinoline-8-carbonitrile] gave an IC50 of less than 100 nM.
`COc1ccc(N2C[C@]3(c4nnc(C5CCN(C)CC5)o4)C[C@]3(C(F)(F)F)C2)c2cccnc12` [Compound 66, 2-((1S,5R)-3-(8-methoxyquinolin-5-yl)-5-(trifluoromethyl)-3-azabicyclo[3.1.0]hexan-1-yl)-5-(1-methylpiperidin-4-yl)-1,3,4-oxadiazole] showed an IC50 of less than 100 nM.
Work on `N#Cc1ccc(N2C[C@]3(c4nnc(C5(F)CNC5)o4)C[C@]3(C(F)(F)F)C2)c2cccnc12` [Compound 32, 5-((1S,5R)-1-(5-(3-Fluoroazetidin-3-yl)-1,3,4-oxadiazol-2-yl)-5-(trifluoromethyl)-3-azabicyclo[3.1.0]hexan-3-yl)quinoline-8-carbonitrile] yielded an IC50 of less than 100 nM.
